13 molecules from patent US10508086B2 (CANCER RESEARCH TECHNOLOGY LIMITED, priority 2014, dated 2019) can be followed below.

One test deals with Human Full Length ARH3 (Homo sapiens (Human), UniProt Q9NX46). In words: ARH3 in vitro selectivity assay (TR-FRET). In kind it is biochemical. Particulars: read-out: ARH3 Biochem IC50. On the procedure:
ARH3 In vitro selectivity assays were conducted in a total volume of 15 ul in a standard 384 well format. 5 ul of Human Full Length ARH3 (Enzo Life Sciences: ALX-201-292), used at a final reaction concentration of 17.5 nM, was added to 5 ul of Ribosylated PARP substrate (also produced internally by Astra Zeneca) at final reaction concentration of 4.5 nM in assay buffer (50 mM Tris pH7.4, 0.1 mg/ml BSA, 3 mM EDTA, 0.4 mM EGTA, 1 mM DTT, 0.01% Tween 20, 50 mM KCl). The reaction was incubated at room temperature for 30 minutes and then 5 ul detection reagent was added. Detection Reagent consists of 42 nM MAb Anti-6HIS XL665 (CisBio: 61HISXLB) and 2.25 nM Streptavidin Europium Cryptate (CisBio: 610SAKLB), both at 3× working stock concentrations (final concentrations of 14 nM and 0.75 nM respectively), in a detection buffer of 50 mM Tris pH7.4, BSA at 0.1 mg/ml and KF at 100 mM. Following incubation at room temperature for 60 minutes in the dark, TR-FRET signal was measured at Ex 340 and Em 665 and Em 620. A ratio was calculated as Em665/EM620×104 for each well and used to calculate percent inhibition for test compounds.
(In general: In TR-FRET formats the signal depends on donor and acceptor labels being close together.)

A further test deals with Human Full Length PARG (Homo sapiens (Human), UniProt Q86W56). In words: PARG in vitro enzyme assay (TR-FRET). Type of test: biochemical. Particulars: read-out: PARG_EC50_ENZYME. Put shortly:
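Full-length human PARG ([…]) incubated with ribosylated PARP substrate (4.5 nM) for 10 min at room temperature in Tris pH 7.4 buffer with EDTA, EGTA, DTT, KCl. Detection by TR-FRET using anti-6HIS XL665 (14 nM final) and streptavidin europium cryptate (0.75 nM final) after 60 min; Em665/Em620 ratio converted to percent inhibition.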

Test [1] deals with Human High specific Activity PARP1 (Homo sapiens (Human), UniProt P09874). Briefly: PARP1 in vitro selectivity assay (histone PARylation, luminescence). In kind it is biochemical. Particulars: read-out: PARP1 Biochem IC50. Here is the method: PARP1 In vitro selectivity assays were conducted as a 10 ul reaction volume in a NUNC Maxisorp 384-well assay plate pre-coated in-house with Histones. 5 ul of Human High specific Activity PARP1 (Trevigen: 4668-100-01) was used at a final reaction concentration of 0.02 units/ml in 1×PARP Buffer (Trevigen: 4671-096-02) with 5 ul of 1×PARP cocktail, which is a mixture of 10×PARP Cocktail (Trevigen: 4671-096-03), 10× Activate DNA (Trevigen: 4671-096-06) and 20×PARP Buffer (as above). The reaction was incubated at room temperature for 60 minutes to allow histones on the coated plate to become PARylated. The wells were then washed with PBS/0.1% Triton X100. PARP1 activity was then detected by measuring the extent of PARylation. Firstly, 10 ul of Streptavidin-HRP (Trevigen: 4800-30-06), diluted 1 in 250 in 1×PARG Assay Buffer (Trevigen: 4680-096-02), was added to each well and incubated at room temperature for 60 minutes. Secondly, following another wash with PBS/0.1% Triton X100, Peroxy Glow Reagents A and B (Trevigen: 4675-096-01 and 4675-096-02) were mixed in equal quantities immediately before use and 100 ul was added to each well. Luminescence signal was then measured immediately.

Another test has as its target PARG in HeLa cell line (Homo sapiens (Human), UniProt Q86W56). Briefly: PARG cell assay (nuclear PAR chains after MMS, immunofluorescence). Type of test: cell-based. Particulars: HeLa cells, MMS 50 μg/mL; read-out: PARG Cell IC50 Geomean. In short, it runs like this: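 HeLa cells pre-dosed 1 h with compound (10-point dose response), then MMS 50 μg/mL for a further hour at 37 °C. Fixed cells immunostained with anti-PAR antibody plus Alexa Fluor 488 secondary and Hoechst. High-content imaging quantified nuclear PAR fluorescence intensity; inhibition maintains PAR chains.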

Human High specific Activity PARP1, sequence (P09874 whole entry): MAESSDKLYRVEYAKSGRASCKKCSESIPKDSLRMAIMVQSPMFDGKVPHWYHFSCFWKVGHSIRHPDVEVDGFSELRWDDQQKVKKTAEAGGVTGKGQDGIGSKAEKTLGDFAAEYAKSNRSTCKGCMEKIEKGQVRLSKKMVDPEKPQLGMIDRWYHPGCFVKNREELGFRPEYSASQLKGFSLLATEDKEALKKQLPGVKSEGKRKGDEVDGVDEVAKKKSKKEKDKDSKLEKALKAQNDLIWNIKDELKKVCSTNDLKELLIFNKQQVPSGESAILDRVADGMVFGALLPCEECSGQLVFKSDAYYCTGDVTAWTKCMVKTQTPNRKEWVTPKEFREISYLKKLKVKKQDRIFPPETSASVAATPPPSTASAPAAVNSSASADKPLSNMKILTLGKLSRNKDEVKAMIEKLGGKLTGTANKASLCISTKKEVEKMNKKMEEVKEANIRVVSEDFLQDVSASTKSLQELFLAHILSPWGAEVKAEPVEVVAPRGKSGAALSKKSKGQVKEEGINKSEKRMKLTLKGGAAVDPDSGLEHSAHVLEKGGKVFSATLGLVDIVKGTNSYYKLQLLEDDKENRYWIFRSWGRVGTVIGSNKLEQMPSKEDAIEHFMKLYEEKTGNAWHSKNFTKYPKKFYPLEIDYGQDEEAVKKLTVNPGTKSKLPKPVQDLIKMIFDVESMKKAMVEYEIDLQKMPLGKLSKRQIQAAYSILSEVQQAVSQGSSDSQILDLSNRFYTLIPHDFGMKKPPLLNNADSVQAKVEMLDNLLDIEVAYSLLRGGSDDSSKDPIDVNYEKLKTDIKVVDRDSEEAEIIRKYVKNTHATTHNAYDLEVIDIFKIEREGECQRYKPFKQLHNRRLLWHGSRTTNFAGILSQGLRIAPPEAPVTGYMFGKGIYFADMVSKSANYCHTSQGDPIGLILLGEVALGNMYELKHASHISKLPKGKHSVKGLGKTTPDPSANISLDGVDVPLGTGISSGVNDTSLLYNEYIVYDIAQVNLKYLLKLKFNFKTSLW
PARG in HeLa cell line, sequence (Q86W56 whole entry): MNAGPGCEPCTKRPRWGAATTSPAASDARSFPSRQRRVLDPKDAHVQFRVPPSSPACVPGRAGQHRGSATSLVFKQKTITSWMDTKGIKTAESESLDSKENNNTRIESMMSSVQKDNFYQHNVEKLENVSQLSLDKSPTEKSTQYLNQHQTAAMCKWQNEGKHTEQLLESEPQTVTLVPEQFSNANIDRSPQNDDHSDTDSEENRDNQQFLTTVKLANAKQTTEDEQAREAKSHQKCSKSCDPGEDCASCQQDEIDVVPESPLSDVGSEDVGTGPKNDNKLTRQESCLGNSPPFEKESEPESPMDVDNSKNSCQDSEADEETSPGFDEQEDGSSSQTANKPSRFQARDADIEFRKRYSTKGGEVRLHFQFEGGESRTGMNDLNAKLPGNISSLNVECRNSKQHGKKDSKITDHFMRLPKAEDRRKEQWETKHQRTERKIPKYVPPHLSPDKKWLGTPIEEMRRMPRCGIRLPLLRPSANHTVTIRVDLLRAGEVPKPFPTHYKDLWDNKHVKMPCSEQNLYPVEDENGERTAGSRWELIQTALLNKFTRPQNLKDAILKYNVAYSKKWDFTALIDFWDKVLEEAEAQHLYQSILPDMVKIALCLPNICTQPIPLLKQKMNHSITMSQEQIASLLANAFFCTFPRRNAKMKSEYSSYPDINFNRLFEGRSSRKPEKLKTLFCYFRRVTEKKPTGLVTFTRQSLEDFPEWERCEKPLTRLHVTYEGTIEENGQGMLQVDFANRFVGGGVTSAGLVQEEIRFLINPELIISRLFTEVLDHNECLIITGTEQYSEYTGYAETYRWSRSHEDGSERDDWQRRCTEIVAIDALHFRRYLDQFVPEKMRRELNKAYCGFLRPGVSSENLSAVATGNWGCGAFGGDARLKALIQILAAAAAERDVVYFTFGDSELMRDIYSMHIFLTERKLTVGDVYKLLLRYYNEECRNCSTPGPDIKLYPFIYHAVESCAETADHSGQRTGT
Human Full Length PARG, sequence (Q86W56 whole entry): as above
Human Full Length ARH3, sequence (Q9NX46 whole entry): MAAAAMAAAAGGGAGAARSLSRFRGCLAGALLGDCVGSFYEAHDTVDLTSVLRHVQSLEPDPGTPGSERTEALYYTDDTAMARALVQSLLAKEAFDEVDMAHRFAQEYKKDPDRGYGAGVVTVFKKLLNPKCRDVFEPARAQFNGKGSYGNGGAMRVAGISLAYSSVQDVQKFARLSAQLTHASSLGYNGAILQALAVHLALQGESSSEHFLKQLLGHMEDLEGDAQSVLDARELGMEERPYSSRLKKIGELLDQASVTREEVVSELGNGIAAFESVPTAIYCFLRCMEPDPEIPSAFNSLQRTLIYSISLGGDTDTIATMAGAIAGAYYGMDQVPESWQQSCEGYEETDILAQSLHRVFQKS

For the molecule `Cc1ncc(Cn2c(=O)n(-c3nnc(C)s3)c3cc(S(=O)(=O)NC4(C)CC4)ccc32)s1` [Example 83], the results for the IC50 (on Human Full Length ARH3; in test [1]; on PARG in HeLa cell line) were above 100 µM, above 150 µM and 0.127 µM, respectively. The EC50 at Human Full Length PARG amounted to 0.151 µM.

On to `Cc1nnc(-n2cc(Cc3sc(C)nc3C)c3ccc(S(=O)(=O)NC4(C)CC4)cc32)s1` [Example 129, 3-[(2,4-Dimethylthiazol-5-yl)methyl]-N-(1-methylcyclopropyl)-1-(5-methyl-1,3,4-thiadiazol-2-yl)indole-6-sulfonamide], for which the figures for the IC50 (on Human Full Length ARH3; in test [1]; at PARG in HeLa cell line) were above 16.7 µM, above 150 µM and 0.251 µM, respectively. Moreover, the EC50 on Human Full Length PARG amounted to 0.371 µM.

For `Cc1nnc(-n2c(=O)n(Cc3sc(C)nc3C)c3ccc(S(=O)(=O)NC4(C)CC4)cc32)s1` [Example 87], the IC50 (in general, the concentration that inhibits the measured activity by half) on Human Full Length ARH3 is 76.7 µM; in test [1] it was above 150 µM; at PARG in HeLa cell line it was 0.109 µM. Besides, at Human Full Length PARG, the EC50 is 0.068 µM.

With `Cc1nc(C)c(Cn2c(=O)n(-c3ncns3)c3cc(S(=O)(=O)NC4(C)CC4)ccc32)s1` [Example 90], the IC50 was above 100 µM at Human Full Length ARH3, above 150 µM in test [1] and 0.063 µM on PARG in HeLa cell line. The EC50 on Human Full Length PARG turned out to be 0.04 µM.

On to `Cc1nnc(-n2c(=O)n(CC3CC3)c3ccc(S(=O)(=O)NC4(C)CC4)cc32)s1` [Example 82], for which the IC50 is above 100 µM at Human Full Length ARH3, above 150 µM in test [1] and 0.193 µM on PARG in HeLa cell line. In addition, on Human Full Length PARG, the EC50 turned out to be 0.155 µM.

In the case of `CC1(NS(=O)(=O)c2ccc3c(C(=O)C4CC4)cn(-c4nnc(C(F)F)s4)c3c2)CC1` [Example 145, 3-(Cyclopropanecarbonyl)-1-[5-(difluoromethyl)-1,3,4-thiadiazol-2-yl]-N-(1-methylcyclopropyl)indole-6-sulfonamide], the IC50 on Human Full Length ARH3 was above 150 µM; in test [1], above 150 µM; on PARG in HeLa cell line it was 0.0466 µM. Also, the EC50 at Human Full Length PARG is 0.134 µM.

Turning to `Cc1nc(C)c(Cn2c(=O)n(-c3nnc(C(F)F)s3)c3cc(S(=O)(=O)NC4(C)CC4)ccc32)s1` [Example 88], the results for the IC50 (on Human Full Length ARH3; in test [1]; on PARG in HeLa cell line) were above 100 µM, above 150 µM and 0.038 µM, respectively. Further, the EC50 at Human Full Length PARG was 0.053 µM.

As for `Cc1nnc(-n2nc(Cc3ccc(F)cc3)c3ccc(S(=O)(=O)NC4(C)CC4)cc32)s1` [Example 146, 3-[(4-Fluorophenyl)methyl]-N-(1-methylcyclopropyl)-1-(5-methyl-1,3,4-thiadiazol-2-yl)indazole-6-sulfonamide], the concentration for half-maximal inhibition (IC50) on Human Full Length ARH3 is above 16.7 µM; in test [1], above 150 µM. The EC50 at Human Full Length PARG is 1.19 µM.

Consider `CC1(NS(=O)(=O)c2ccc3c(c2)N(C(=O)CN2CCOC2=O)CC3)CC1` [Example 14, N-(1-Methylcyclopropyl)-1-[2-(2-oxooxazolidin-3-yl)acetyl]indoline-6-sulfonamide], for which the IC50 (on Human Full Length ARH3; in test [1]) was above 150 µM in each case. Besides, the EC50 on Human Full Length PARG is 4.28 µM.

`Cc1nnc(-n2c(=O)n(Cc3ccc(F)cc3)c3ccc(S(=O)(=O)NC4(C)CC4)cc32)s1` [Example 73]: the IC50 was above 100 µM on Human Full Length ARH3, above 150 µM in test [1] and 0.107 µM on PARG in HeLa cell line. The EC50 on Human Full Length PARG is 0.636 µM.

For `Cn1c(=O)n(-c2nnc(C(F)F)s2)c2cc(S(=O)(=O)NC3(CF)CC3)c(F)cc21` [Example 174, 3-[5-(difluoromethyl)-1,3,4-thiadiazol-2-yl]-6-fluoro-N-[1-(fluoromethyl)cyclopropyl]-1-methyl-2-oxo-benzimidazole-5-sulfonamide], the figures for the IC50 (on Human Full Length ARH3; in test [1]; on PARG in HeLa cell line) were above 50 µM, above 150 µM and 0.041 µM, respectively. In addition, the EC50 at Human Full Length PARG was 0.091 µM.

In the case of `Cc1nnc(-n2cnc3ccc(S(=O)(=O)NC4(C)CC4)cc32)s1` [Example 119], the IC50 (at Human Full Length ARH3; in test [1]) was above 150 µM each time. Besides, on Human Full Length PARG, the EC50 is 1.03 µM.

In the case of `CCn1c(=O)n(-c2nnc(C(F)F)s2)c2cc(S(=O)(=O)NC3(CF)CC3)c(F)cc21` [Example 208, 3-[5-(Difluoromethyl)-1,3,4-thiadiazol-2-yl]-1-ethyl-6-fluoro-N-[1-(fluoromethyl)cyclopropyl]-2-oxo-benzimidazole-5-sulfonamide], the 50% inhibitory concentration (IC50) at Human Full Length ARH3 is above 150 µM; in test [1], above 150 µM; on PARG in HeLa cell line, 0.029 µM. Besides, the EC50 on Human Full Length PARG worked out at 0.054 µM.
